According to patent US20240294465A1, “NOVEL ANTI-FIBROTIC DRUGS” (HELMHOLTZ ZENTRUM MUNCHEN - DEUTSCHES FORSCHUNGSZENTRUM FUR …, priority 2021, published 2024):
“Also recorded” adds a separate entry of the source.

Tests used:
[1] = tested on: cell shape, microtubules and actin of phLFs; test: Fluorescence microscopy of cell morphology and cytoskeleton (α-Tubulin, phalloidin, calcein); type: cell-based, human
Excerpt: FIG. 14: Dose-response relationships of N23Ps, live imaging of ECM deposition and cell-morphology switch. (A) Structural formula for Tranilast and N23Ps (example 84 and example 85) indicating 2-butoxy-substitution at R1 and IC50 values. […] Cell nuclei in blue (HOECHST). Scale bar=500 μm. […] Cell nuclei were stained by Hoechst (blue). Scale bar=50 μm. (F) Confocal images of subconfluent phLFs+TGFβ1 stained for Hoechst (blue), calcein (green) and phalloidin (red) showing round cell morphologies after treatment with example 84 as well as extensive actin cytoskeletal rearrangements (red). […] Scale bar=500 μm. Data are presented as means t SEM. Differences between groups were evaluated with paired t-tests. * p<0.05. n=3 (three different patient phLFs).
FIG. 16: (A) Fluorescence wide-field microscopy images (10× objective in low magnification and resolution) of phLFs treated with 5 μM DMSO, 50 μM example 84 and 100 μM Tranilast, and stained for Hoechst (blue), α-Tubulin (green) and filamentous actin (red, Phalloidin). […] Scale bar=100 μm. (B) Fluorescence wide-field microscopy images (63× objective in high magnification and resolution) of phLFs treated with either 5 μM DMSO or 50 μM example 84, and stained for Hoechst (blue), a.-Tubulin (green) and filamentous actin (red, Phalloidin). […] Scale bar=[…]. iPSC=induced pluripotent stem cells. […] Scale bar=350 μm. […] Thus, the compounds of the present invention show similar effects like colchicine on microtubules (41). Therefore, the compounds of the present invention are also for use in the treatment of inflammatory diseases such as arthrolithiasis, familiar mediterranean fever and pericarditis amongst others by the inhibition of polymorphonuclear leukocyte and macrophage motility as well as intracellular vesicular transport mechanisms.
For standard immunofluorescence staining, 5000 phLFs were seeded into 96 well imaging plates with a flat bottom (Cat #353376, BD Biosciences). After incubation, cells were fixed with either 4% PFA for 30 min at 37° C. or 100% methanol for 2 min at −20° C. […]

[2] = tested on: human lung organoids derived from human lung progenitor cells; test: Human lung organoid growth (colony formation efficiency); type: cell-based; conditions: 10 μM, 14 days in culture
[3] = tested on: phLFs; test: Cytotoxicity assays (MTT, live/dead calcein, caspase 3/7); type: cell-based; conditions: confluent phLFs+TGFβ1
Excerpt: Viability/Cytotoxicity Assay Kit for Animal Live and Dead Cells was obtained from Biotium, Cat. No. 3002). CellEvent™ Caspase 3/7 Green Detection Reagent was acquired from Invitrogen, Cat. No. C10423. For MTT-assays, Thiazolyl Blue Tetrazolium was bought from SigmaAldrich (M5655-1G). All these kits and assays were used according to the manufacturer's instructions.

Structure (SMILES): CCCCOc1ccccc1NC(=O)/C=C/c1ccc(OC)c(OC)c1 [Example 84, (E)-N-(2-butoxyphenyl)-3-(3,4-dimethoxyphenyl)acrylamide]
- cell morphology ([1]; b48: example 84 50 μM, Tranilast 100 μM): significant changes in cell-shape and eccentricity towards round cells; also recorded: cell-shape switch towards round cell morphologies
- actin filaments (Phalloidin) ([1]; example 84 50 μM): without affecting actin filaments
- microtubules (α-Tubulin staining) ([1]; example 84 50 μM, Tranilast 100 μM): depolymerized, that is non-filamentous, microtubules
- organoid growth [2]: inhibited organoid growth
- viability of lung progenitor cells (calcein / ethidium homodimer III) [2]: many lung progenitor cells are still viable
- viability (calcein staining) [3]: proving viability
